Reference: ChEMBL document CHEMBL1137449, “A refined agonist pharmacophore for protease activated receptor 2” (Bioorg Med Chem Lett, 2007)
Numbered stars: 1 amine (or outer) side, 2 acyl side, 3 side chain; on linkers, the order of the positions; unused ones are H or OH. Square brackets hold non-standard residues; d marks the D form. Peptide text beside a SMILES is read from it. * marks the point of attachment. Tyr(3,5-(NO2)2) = N[C@@H](Cc1cc([N+](=O)[O-])c(O)c([N+](=O)[O-])c1)C(=O)O; Tyr(3-NO2) = N[C@@H](Cc1ccc(O)c([N+](=O)[O-])c1)C(=O)O; X2 = CCOP(=O)(Cc1ccc(C[C@H](N[*:1])C(=O)[*:2])cc1)OCC; Phe(4-NO2) = N[C@@H](Cc1ccc([N+](=O)[O-])cc1)C(=O)O; Phe(4-N3) = [N-]=[N+]=Nc1ccc(C[C@H](N)C(=O)O)cc1; Phe(3,4-(OMe)2) = COc1ccc(C[C@H](N)C(=O)O)cc1OC; Phe(3,4-Cl2) = N[C@@H](Cc1ccc(Cl)c(Cl)c1)C(=O)O; Phe(4-COOH) = N[C@@H](Cc1ccc(C(=O)O)cc1)C(=O)O; Phe(4-tBu) = CC(C)(C)c1ccc(C[C@H](N)C(=O)O)cc1; Phe(3-CN) = N#Cc1cccc(C[C@H](N)C(=O)O)c1; Phe(3-OMe) = COc1cccc(C[C@H](N)C(=O)O)c1; Phe(4-CN) = N#Cc1ccc(C[C@H](N)C(=O)O)cc1; Phe(4-Cl) = N[C@@H](Cc1ccc(Cl)cc1)C(=O)O; Phe(4-I) = N[C@@H](Cc1ccc(I)cc1)C(=O)O; Bta = N[C@@H](Cc1csc2ccccc12)C(=O)O; Oxazole4CO(2-Me) = Cc1nc(C(=O)*)co1; hTyr = N[C@@H](CCc1ccc(O)cc1)C(=O)O; hPhe = N[C@@H](CCc1ccccc1)C(=O)O

Each compound was assayed against T1, Proteinase-activated receptor 2 (Homo sapiens, UniProt P55085) (assay: Agonist activity at PAR2 expressed in human HT29 cells assessed as intracellular calcium release).
T1 sequence (P55085 whole entry): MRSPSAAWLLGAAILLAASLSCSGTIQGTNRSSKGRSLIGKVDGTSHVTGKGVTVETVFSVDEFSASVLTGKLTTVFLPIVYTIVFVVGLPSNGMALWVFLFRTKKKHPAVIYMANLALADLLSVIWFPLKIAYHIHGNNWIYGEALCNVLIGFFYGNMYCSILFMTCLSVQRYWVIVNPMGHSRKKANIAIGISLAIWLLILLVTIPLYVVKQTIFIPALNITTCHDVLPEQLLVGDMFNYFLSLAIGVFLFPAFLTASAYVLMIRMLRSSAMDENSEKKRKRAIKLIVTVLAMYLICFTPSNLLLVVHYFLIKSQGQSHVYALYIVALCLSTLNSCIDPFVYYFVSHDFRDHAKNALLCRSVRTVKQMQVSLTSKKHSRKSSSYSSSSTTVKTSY
Assay type: functional, cell-based, HT-29

Structure (SMILES) | EC50
CC[C@H](C)[C@H](NC(=O)[C@H](Cc1csc2ccccc12)NC(=O)[C@H](CCCNC(=N)N)NC(=O)CNC(=O)[C@@H](NC(=O)[C@H](CC(C)C)NC(=O)[C@@H](N)CO)[C@@H](C)CC)C(N)=O (H-SLIGR[Bta]I-NH2) | 300 nM
CC[C@H](C)[C@H](NC(=O)[C@H](Cc1ccc(OC)c(OC)c1)NC(=O)[C@H](CCCNC(=N)N)NC(=O)CNC(=O)[C@@H](NC(=O)[C@H](CC(C)C)NC(=O)[C@@H](N)CO)[C@@H](C)CC)C(N)=O (H-SLIGR[Phe(3,4-(OMe)2)]I-NH2) | 1300 nM
CC[C@H](C)[C@H](NC(=O)[C@H](Cc1ccc(Cl)c(Cl)c1)NC(=O)[C@H](CCCN=C(N)N)NC(=O)CNC(=O)[C@@H](NC(=O)[C@H](CC(C)C)NC(=O)[C@@H](N)CO)[C@@H](C)CC)C(N)=O (H-SLIGR[Phe(3,4-Cl2)]I-NH2) | 300 nM
CC[C@H](C)[C@H](NC(=O)[C@H](CC(C)C)NC(=O)[C@@H](N)CO)C(=O)NCC(=O)N[C@@H](CCCNC(=N)N)C(=O)N[C@@H](Cc1ccc([N+](=O)[O-])cc1)C(N)=O (H-SLIGR[Phe(4-NO2)]-NH2) | 600 nM
CC[C@H](C)[C@H](NC(=O)[C@H](Cc1cc([N+](=O)[O-])c(O)c([N+](=O)[O-])c1)NC(=O)[C@H](CCCNC(=N)N)NC(=O)CNC(=O)[C@@H](NC(=O)[C@H](CC(C)C)NC(=O)[C@@H](N)CO)[C@@H](C)CC)C(N)=O (H-SLIGR[Tyr(3,5-(NO2)2)]I-NH2) | 1400 nM
CCOP(=O)(Cc1ccc(C[C@H](NC(=O)[C@H](CCCNC(=N)N)NC(=O)CNC(=O)[C@@H](NC(=O)[C@H](CC(C)C)NC(=O)[C@@H](N)CO)[C@@H](C)CC)C(=O)N[C@H](C(N)=O)[C@@H](C)CC)cc1)OCC (H-SLIGR[X2]I-NH2) | 1300 nM
CC[C@H](C)[C@H](NC(=O)[C@H](CCc1ccccc1)NC(=O)[C@H](CCCNC(=N)N)NC(=O)CNC(=O)[C@@H](NC(=O)[C@H](CC(C)C)NC(=O)[C@@H](N)CO)[C@@H](C)CC)C(N)=O (H-SLIGR[hPhe]I-NH2) | 1800 nM
CC[C@H](C)[C@H](NC(=O)[C@H](CC(C)C)NC(=O)c1coc(C)n1)C(=O)NCC(=O)N[C@@H](CCCNC(=N)N)C(=O)N[C@@H](Cc1ccc(I)cc1)C(N)=O ({Oxazole4CO(2-Me)}-LIGR[Phe(4-I)]-NH2) | 320 nM

Next, values leading:

EC50 | Structure (SMILES)
1700 nM | CC[C@H](C)[C@H](NC(=O)[C@H](Cc1cccc(C#N)c1)NC(=O)[C@H](CCCNC(=N)N)NC(=O)CNC(=O)[C@@H](NC(=O)[C@H](CC(C)C)NC(=O)[C@@H](N)CO)[C@@H](C)CC)C(N)=O (H-SLIGR[Phe(3-CN)]I-NH2)
3300 nM | CC[C@H](C)[C@H](NC(=O)[C@H](Cc1cccc(OC)c1)NC(=O)[C@H](CCCNC(=N)N)NC(=O)CNC(=O)[C@@H](NC(=O)[C@H](CC(C)C)NC(=O)[C@@H](N)CO)[C@@H](C)CC)C(N)=O (H-SLIGR[Phe(3-OMe)]I-NH2)
900 nM | CC[C@H](C)[C@H](NC(=O)[C@H](Cc1ccc(C#N)cc1)NC(=O)[C@H](CCCNC(=N)N)NC(=O)CNC(=O)[C@@H](NC(=O)[C@H](CC(C)C)NC(=O)[C@@H](N)CO)[C@@H](C)CC)C(N)=O (H-SLIGR[Phe(4-CN)]I-NH2)
5000 nM | CC[C@H](C)[C@H](NC(=O)[C@H](Cc1ccc(C(=O)O)cc1)NC(=O)[C@H](CCCNC(=N)N)NC(=O)CNC(=O)[C@@H](NC(=O)[C@H](CC(C)C)NC(=O)[C@@H](N)CO)[C@@H](C)CC)C(N)=O (H-SLIGR[Phe(4-COOH)]I-NH2)
500 nM | CC[C@H](C)[C@H](NC(=O)[C@H](Cc1ccc(Cl)cc1)NC(=O)[C@H](CCCNC(=N)N)NC(=O)CNC(=O)[C@@H](NC(=O)[C@H](CC(C)C)NC(=O)[C@@H](N)CO)[C@@H](C)CC)C(N)=O (H-SLIGR[Phe(4-Cl)]I-NH2)
600 nM | CC[C@H](C)[C@H](NC(=O)[C@H](Cc1ccc(I)cc1)NC(=O)[C@H](CCCNC(=N)N)NC(=O)CNC(=O)[C@@H](NC(=O)[C@H](CC(C)C)NC(=O)[C@@H](N)CO)[C@@H](C)CC)C(N)=O (H-SLIGR[Phe(4-I)]I-NH2)
2500 nM | CC[C@H](C)[C@H](NC(=O)[C@H](Cc1ccc(N=[N+]=[N-])cc1)NC(=O)[C@H](CCCNC(=N)N)NC(=O)CNC(=O)[C@@H](NC(=O)[C@H](CC(C)C)NC(=O)[C@@H](N)CO)[C@@H](C)CC)C(N)=O (H-SLIGR[Phe(4-N3)]I-NH2)
600 nM | CC[C@H](C)[C@H](NC(=O)[C@H](Cc1ccc(C(C)(C)C)cc1)NC(=O)[C@H](CCCNC(=N)N)NC(=O)CNC(=O)[C@@H](NC(=O)[C@H](CC(C)C)NC(=O)[C@@H](N)CO)[C@@H](C)CC)C(N)=O (H-SLIGR[Phe(4-tBu)]I-NH2)
1400 nM | CC[C@H](C)[C@H](NC(=O)[C@H](Cc1ccc(O)c([N+](=O)[O-])c1)NC(=O)[C@H](CCCNC(=N)N)NC(=O)CNC(=O)[C@@H](NC(=O)[C@H](CC(C)C)NC(=O)[C@@H](N)CO)[C@@H](C)CC)C(N)=O (H-SLIGR[Tyr(3-NO2)]I-NH2)
3000 nM | CC[C@H](C)[C@H](NC(=O)[C@H](CCc1ccc(O)cc1)NC(=O)[C@H](CCCNC(=N)N)NC(=O)CNC(=O)[C@@H](NC(=O)[C@H](CC(C)C)NC(=O)[C@@H](N)CO)[C@@H](C)CC)C(N)=O (H-SLIGR[hTyr]I-NH2)
